From US20240239823A1, “PHOSPHINATE ESTER-CONTAINING DYES HAVING TUNABLE PROPERTIES AND METHODS OF MAKING THE SAME” (University of Virginia Patent Foundation, priority 2021, published 2024)

How the values were obtained:
[1] = Aggregation in aqueous solution (absorbance versus concentration, SDS addition); type: physicochemical; conditions: for effect of surfactant on absorbance: addition of 0.1% SDS, water; for aggregation / H-aggregate formation (blue-shifted absorbance band): aqueous solutions; for aggregation / H-aggregate formation (blue-shifted absorbance band) / linearity of absorbance versus concentration: increasing concentrations; for linearity of absorbance versus concentration: in water
From the text: FIG. 2.2A: The structure of methylene blue (MB) and NR751.

[2] = Quenching of dye absorbance by glutathione (GSH); type: physicochemical; conditions: absence versus presence of GSH
From the text: The absorbance of NR708 in the absence or presence of GSH is shown.
In order to improve the chemical stability of NR dyes to nucleophiles found in biological systems, such as glutathione (GSH), bulky substituents were introduced to protect the C9 position of the dyes from nucleophilic attack. Accordingly, derivatives of NR700 and NR666, termed NR708 and NR675, respectively, were synthesized that bear bulky substituents on the pendant phenyl ring proximal to the C9 position of the dye (FIG. 3.1). […] The improved chemical stability of these dyes will provide brighter probes for imaging applications.

RAW 264.7 cells = assay: Confocal imaging of RAW 264.7 cells with or without stimulation to produce endogenous HOCl; type: cell-based; conditions: 50 μM; cells producing HOCl
Protocol: FIGS. 5.2A-5.2C show phosphinate-containing dyes as gated small molecule delivery vehicles for cytotoxic compounds in cells. FIG. 5.2A: The structure of NR—HOCl-1541B (left). Selective reaction with HOCl results in the gated release of 1541B, a cytotoxic compound, and a fluorescent NR dye (right) FIG. 5.2B: Viability of RAW 264.7 macrophages in the presence or absence of stimulation to produce endogenous HOCl (LPS and PMA), cells were incubated with 50 μM 1541B or NR—HOCl-1541B where indicated. FIG. 5.2C: Confocal imaging of RAW 264.7 cells incubated with 50 μM NR—HOCl-1541B in the presence or absence of stimulation to produce endogenous HOCl.

Row | aggregation / H-aggregate formation (blue-shifted absorbance band) [1] | quenching / change of absorbance in the presence of glutathione (GSH) [2] | Structure (SMILES) | effect of surfactant on absorbance [1] | linearity of absorbance versus concentration [1] | fluorescence and payload delivery in cells (RAW 264.7 cells)
1 | increase in H-aggregate formation | – | CN(C)c1ccc2nc3ccc(=[N+](C)C)cc-3sc2c1 [MB, methylene blue, reference compound] | reduces the intensity of the blue-shifted H-Aggregate absorption band | clear deviation from linearity | –
2 | – | virtually no quenching | COc1cccc(OC)c1C1=C2C=CC(=[N+](C)C)C=C2P(=O)(O)c2cc(N(C)C)ccc21 [NR675] | – | – | –
3 | significantly reduced aggregation | – | CC1=CC(=[N+](C)C)C=C2C1=Nc1c(C)cc(N(C)C)cc1P2(=O)O [NR751] | No change is observed in the absorbance | clear linear increase in absorbance versus concentration | –
4 | – | – | CN(C)c1ccc2c(c1)P(=O)(Oc1cccc3cc(C(=O)Nc4cccc(-c5cn6ccccc6n5)c4)c(=O)oc13)c1cc(N(C)C)ccc1C21SCc2ccccc21 (centres unmarked) [NR—HOCl-1541B] | – | – | Clear evidence of fluorescence, and payload delivery
